# Laboratory results from ChEMBL document CHEMBL3286306, “Himbacine-derived thrombin receptor antagonists: c7-spirocyclic analogues of vorapaxar” (ACS Med Chem Lett, 2014).
# Key:
# [1] = target: T1, Proteinase-activated receptor 1 (Homo sapiens, UniProt P25116); experiment: Displacement of [3H]haTRAP from PAR-1 receptor in human platelet membranes after 1 hr by scintillation counting analysis; format: cell membranes
# T1 sequence (P25116 whole entry): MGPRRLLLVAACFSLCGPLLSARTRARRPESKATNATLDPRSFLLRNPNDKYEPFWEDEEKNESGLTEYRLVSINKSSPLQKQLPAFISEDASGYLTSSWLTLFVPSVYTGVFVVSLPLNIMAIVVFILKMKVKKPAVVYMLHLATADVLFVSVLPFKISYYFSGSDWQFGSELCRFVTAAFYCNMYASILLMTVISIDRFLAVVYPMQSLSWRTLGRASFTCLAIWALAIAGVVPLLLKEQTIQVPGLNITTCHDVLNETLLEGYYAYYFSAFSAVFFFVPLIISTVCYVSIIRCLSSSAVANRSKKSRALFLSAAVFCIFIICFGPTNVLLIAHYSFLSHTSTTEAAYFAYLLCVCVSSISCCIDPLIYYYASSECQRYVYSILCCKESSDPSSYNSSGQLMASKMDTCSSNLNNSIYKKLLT
# [2] = AUC (0 to 6 hrs) in rat at 10 mg/kg, po; format: ADME, organism-based; set-up: time < 6 hr, dose 10 mg/kg, route oral; settings: plasma
SMILES,Ki [1],AUC(0-t) at 6 h [2]
C[C@H]1OC(=O)[C@@H]2C[C@@H]3C[C@@]4(CC[C@H]3[C@H](/C=C/c3ccc(-c5ccccc5C#N)cn3)[C@H]12)COC(=O)N4,8.9 nM,–
C[C@H]1OC(=O)[C@@H]2C[C@@H]3C[C@@]4(CC[C@H]3[C@H](/C=C/c3ccc(-c5cccc(C#N)c5)cn3)[C@H]12)COC(=O)N4,43 nM,–
C[C@H]1OC(=O)[C@@H]2C[C@@H]3C[C@]4(CC[C@H]3[C@H](/C=C/c3ccc(-c5ccccc5C#N)cn3)[C@H]12)COC(=O)N4,5.1 nM,–
C[C@H]1OC(=O)[C@@H]2C[C@@H]3C[C@]4(CC[C@H]3[C@H](/C=C/c3ccc(-c5cccc(C(F)(F)F)c5)cn3)[C@H]12)COC(=O)N4,21 nM,4920 ng·h/mL
C[C@H]1OC(=O)[C@@H]2C[C@@H]3C[C@]4(CC[C@H]3[C@H](/C=C/c3ccc(-c5cccc(F)c5)cn3)[C@H]12)COC(=O)N4,15.5 nM,3240 ng·h/mL
C[C@H]1OC(=O)[C@@H]2C[C@@H]3C[C@@]4(CC[C@H]3[C@H](/C=C/c3ccc(-c5cccc(F)c5)cn3)[C@H]12)COC(=O)N4,28 nM,–
C[C@H]1OC(=O)[C@@H]2C[C@@H]3C[C@@]4(CC[C@H]3[C@H](/C=C/c3ccc(-c5cccc(C(F)(F)F)c5)cn3)[C@H]12)COC(=O)N4,26.5 nM,–
C[C@H]1OC(=O)[C@@H]2C[C@@H]3C[C@@]4(CC[C@H]3[C@H](/C=C/c3ccc(-c5ccccn5)cn3)[C@H]12)COC(=O)N4,232 nM,–
C[C@H]1OC(=O)[C@@H]2C[C@@H]3C[C@@]4(CC[C@H]3[C@H](/C=C/c3ccc(-c5ccccc5F)cn3)[C@H]12)COC(=O)N4,25 nM,–
C[C@H]1OC(=O)[C@@H]2C[C@@H]3C[C@]4(CC[C@H]3[C@H](/C=C/c3ccc(-c5cccc(C#N)c5)cn3)[C@H]12)COC(=O)N4,267 nM,–
C[C@H]1OC(=O)[C@@H]2C[C@@H]3C[C@]4(CC[C@H]3[C@H](/C=C/c3ccc(-c5cccc(C(F)(F)F)c5)cn3)[C@H]12)CNC(=O)O4,392 nM,–
C[C@H]1OC(=O)[C@@H]2C[C@@H]3C[C@@]4(CC[C@H]3[C@H](/C=C/c3ccc(-c5cccc(C(F)(F)F)c5)cn3)[C@H]12)CNC(=O)O4,31.5 nM,3200 ng·h/mL
